± gives the expanded uncertainty stated by the source.
Assays:
[1] = 293.15 K; 101.3 kPa; Liquid; Vibrating tube method
[2] = refractive index (Na D-line) (dimensionless); details: 293.15 K; 101.33 kPa; Liquid; Standard Abbe refractometry

Row | SMILES | mass density [1] [kg/m3] | refractive index [2]
1 | CC(=O)OCC(C)C [2-methylpropyl ethanoate] | 873.4 ± 1.6 | 1.3902 ± 0.0025
2 | CO [methanol] | 792.1 ± 1.6 | 1.3285 ± 0.0025
3 | CCO [ethanol] | 789.2 ± 1.6 | 1.3616 ± 0.0025

— the NIST ThermoML archive (doi:10.1021/acs.jced.6b00949)
